In ChEMBL document CHEMBL1134203, “Discovery of potent and selective succinyl hydroxamate inhibitors of matrix metalloprotease-3 (stromelysin-1)” (Bioorg Med Chem Lett, 2001):

What was measured:
[1] = molecular target: Matrix metalloproteinase-9 (Homo sapiens, UniProt P14780)
[2] = molecular target: Matrix metalloproteinase-14 (Homo sapiens, UniProt P50281)

Chain of Matrix metalloproteinase-9 (P14780 whole entry): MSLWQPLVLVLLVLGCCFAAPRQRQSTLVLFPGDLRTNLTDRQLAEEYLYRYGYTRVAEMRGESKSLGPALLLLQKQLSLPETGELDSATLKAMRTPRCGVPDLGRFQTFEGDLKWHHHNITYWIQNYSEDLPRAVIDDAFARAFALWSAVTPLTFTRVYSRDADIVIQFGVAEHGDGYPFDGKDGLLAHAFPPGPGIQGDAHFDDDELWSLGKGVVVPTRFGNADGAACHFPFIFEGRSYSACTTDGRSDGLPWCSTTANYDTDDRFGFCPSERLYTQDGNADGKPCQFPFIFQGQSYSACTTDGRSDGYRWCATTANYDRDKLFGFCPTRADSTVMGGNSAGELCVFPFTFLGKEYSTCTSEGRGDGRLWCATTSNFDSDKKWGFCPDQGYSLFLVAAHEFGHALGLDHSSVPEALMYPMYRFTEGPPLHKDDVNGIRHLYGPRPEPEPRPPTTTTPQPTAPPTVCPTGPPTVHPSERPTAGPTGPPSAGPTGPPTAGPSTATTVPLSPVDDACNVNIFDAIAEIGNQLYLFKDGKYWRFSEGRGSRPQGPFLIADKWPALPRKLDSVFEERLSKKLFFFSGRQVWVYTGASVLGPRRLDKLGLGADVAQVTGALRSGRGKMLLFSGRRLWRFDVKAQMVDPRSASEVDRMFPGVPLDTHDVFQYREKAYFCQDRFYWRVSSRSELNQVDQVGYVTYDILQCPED

With `Cc1cc(CCC[C@H](CC(=O)NO)C(=O)N[C@H](C(=O)N[C@H](C)c2ccccc2)C(C)(C)C)ccc1-c1ccccc1` the IC50 [1] was 0.84 µM and the IC50 [2] was 1.9 µM.
